Laboratory results taken from patent publication US12414983B2, “CD200AR ligands for cancer immunotherapy” (REGENTS OF THE UNIVERSITY OF MINNESOTA, priority 2019, dated 2025).
Entries after “also recorded” stand apart in the source; their conditions may differ.

Columns and labels:
[1] = tested on: spontaneously occurring glioblastoma; test: Canine study: tumor resection plus canine CD200AR-L and autologous tumor lysate vaccination; assay type: in vivo, dog; conditions: canine glioma model
Protocol: Canine study. Pet dogs with a solitary intra-axial mass found by magnetic resonance imaging (MRI) were recruited into a pilot study to assess the effect of a canine-specific peptide. The MRIs were performed to find the causes of generalized seizure activity or behavioral changes, and anti-epileptic drug therapy and corticosteroids were prescribed to control seizures and minimize cerebral edema, respectively. Additional inclusion criteria were 1) tumor suitable for surgical resection, 2) informed consent provided by the dog's owner, 3) normal mentation status at the time of surgery, and 4) no previous definitive therapy for the suspected glioma.
All dogs underwent surgical resection of the intra-axial mass for maximal tumor debulking. The removed tumors were immediately processed to generate autologous tumor lysates. The lysates were prepared by culturing single-cell suspensions from minced fresh tumor samples at 37° C. in 5% […]. […] An immediate postoperative MRI was performed to assess the extent of resection and to quantify any residual tumor volume. Tumor volume was measured using the planimetry method, which outlines the tumor perimeter on each MR slice; Osirix software was used to calculate the area, and then the areas were summed and multiplied by slice thickness plus gap width. After recovery from anesthesia, all dogs were monitored in the intensive care unit for at least 24 hours. […]

human CD14 cells = test: CD200R1 and PD-1 on human CD14 cells pulsed with human CD200AR-L, flow cytometry; assay type: cell-based; conditions: mean fluorescent intensity
Protocol: FIGS. 7A-7G. CD200AR-L pulses down-regulate inhibitory CD200R1. Murine CD11b cells were pulsed with mCD200AR-L, RNA was extracted and analyzed for CD200R1 or PD-1 expression (FIGS. 7A&B). To further these studies, CD11b cells were stimulated with OVA+/−CD200AR-L, cells were washed and purified T cells were added. Following 24 hr incubation, T-cells were isolated and analyzed for CD200R1 or PD-1 expression (FIGS. 7C&D). To see if these experiments translated to humans, CD14 cells were pulsed with our human CD200AR-L. Following 24 hr incubation, cells were stained with anti-CD200R1 analyzed by flow cytometry (FIG. 7E), mean fluorescent intensity was analyzed for CD200R1 (FIG. 7F) and PD-1 (FIG. 7G) expression. […] Error bars represent standard deviation (n=3/group, *P<0.05, **P<0.005, ***P<0.0005, ****P<0.00005 by t-test.
FIGS. 13A-13F. Figure. […] Murine CD11b cells were pulsed CD200AR-L and analyzed for transcription levels of (FIG. 13A) CD200R1 and (FIG. 13B) PD-1; Human CD14 cells were pulsed with human CD200AR-L, following 48 hr incubation, cells were analyzed by flow cytometry for (FIG. 13C) CD200R1 and (FIG. 13D) PD-1 expression; murine CD11b cells from wildtype mice were pulsed with OVA+/− the CD200AR-L. Cells were washed, purified CD3 cells were added to CD11b cells for 24 hrs. CD3 cells were purified and analyzed for transcription levels of (FIG. 13E) CD200R1 and (FIG. 13F) PD-1. […]

Human CD14+ cells = test: Cytokine measurements in CD14+ cells pulsed with CD200AR-L peptide; assay type: cell-based; conditions: selection among 61 alanine-substituted peptides
Protocol: Cytokine measurements. Human CD14^+ cells (5×10^5) were isolated from peripheral blood mononuclear cells (PBMCs) using anti-CD14 beads (BD Biosciences, San Jose, CA), typically yielding ≥70% recovery and ≥90% purity. Cells were pulsed with 2 μM CD200AR-L peptide and incubated for 48 h, after which the supernatants were analyzed by bead array for cytokine production (BD Biosciences, San Jose, CA).

CD14+ cells [2] = test: RNAseq / NanoString gene expression analysis of pulsed CD14+ cells; assay type: cell-based, human
Excerpt: Nanostring gene expression analysis: Total RNA from CD14^+ cells was sent to New Zealand Genomics Limited (Dunedin, New Zealand) to measure the expression of genes that are differentially expressed during inflammation (nCounter GX, NanoString Technologies, Seattle, WA, USA). Briefly, total RNA was extracted from CD14^+ cells (MagJET RNA kit, Thermo Fisher Scientific, Waltham, MA) using the protocol adapted for tissue (KingFisher Duo machine, Thermo Fisher Scientific, Waltham, MA). RNA samples were then quantified (Qubit® 2.0 fluorometer, Thermo Fisher Scientific) and subjected to RNA integrity analysis (2100 Bioanalyzer, Agilent Technologies, Santa Clara, CA). Probes for the genes encoding CD44 (NM_001001392.1); NANOG (NM_024865.2); OCT4 (NM_002701.4); STAT3 (NM_139276.2); and the housekeeping genes glucuronidase beta (NM_000181.1), clathrin heavy chain (NM 4859.2), and hypoxanthine phosphoribosyltransferase 1 (NM_000194.1) were designed and manufactured by NanoString Technologies.
Expression data obtained with NanoString GX were analyzed by using nSolver Analysis Software 3.0 (nanostring.com/products/nSolver) with default settings, and normalized to housekeeping genes. nSolver was used to perform cluster analysis and to generate heat maps by using Java Treeview Version 1.1.6r4. Pathway analysis was performed by using the PathCards Pathway Unification Database (pathcards.genecards.org). Student's t-tests were used to determine significant differences (p<0.05).

CD14+ cells [3] = test: Dendritic cell maturation: phenotyping for CD80, CD86, HLA-DR; assay type: cell-based, human; conditions: peptide alone compared with GM-CSF+IL4, p<0.0001
Protocol: FIGS. 4A-4D. Targeting CD200 activation receptors enhances dendritic cell maturation. (FIGS. 4A, 4B) CD14 purified cells were pulsed with (FIG. 4A) GM-CSF+IL4 or equal molar ratios of peptides P1A8, P2A0, or P4A10 or (FIG. 4B) GM-CSF+IL4 plus equal molar ratios of peptides P1A8, P2A0, or P4A10 and incubated for 48 h. Cells were harvested and phenotyped for CD80, CD86, and HLA-DR. (FIG. 4C) Immature dendritic cells from donors with or without CMV were pulsed with the CMV antigen pp65+/−equal molar ratios of peptides P1A8, P2A0, or P4A10. Cells were washed, and autologous T-cells were added back and incubated for a further 48 h. Supernatants were analyzed for IFNγ production. (FIG. 4D) Immature dendritic cells were pulsed with the CMV antigen pp65+/−P4A10. After the cells were washed, autologous T-cells were added back and incubated for a further 48 h. Supernatants were analyzed for IFNγ, IL-6, TNFα and RANTES content. Error bars represent standard deviation (n=3 healthy donors/group, *P<0.05, **P<0.005, ***P<0.0005 by t-test). The data represent three separate healthy donors. Black bars represent CMV-negative donors.
Targeting CD200 activation receptors enhances dendritic cell maturation. TNF-regulated cytokines (Table 1) have been implicated in dendritic cell maturation. […] To substantiate this, CD14^+ cells were isolated from healthy human donors and pulsed with GM-CSF+IL4, P1A8, P2A0, or P4A10 27. Cells pulsed with P1A8, P2A0, and P4A10 expressed higher levels of the co-stimulatory molecules CD80, CD86, and HLA-DR than cells treated with GM-CSF+IL4 (p<0.0001; FIG. 4a). Moreover, we observed synergistic upregulation of CD80/86 and HLA-DR when CD14^+ cells were incubated with GM-CSF+IL4 and each of the peptides (p<0.0001) (FIG. 4b).

Splenocytes = Splenocytes pulsed with CD200 or PD-L1 +/- mCD200AR-L, flow cytometry for CTLA4 and PD-L1; assay type: cell-based
Protocol: FIGS. 14A-14C. […] Splenocytes were pulsed with CD200, PD-L1+/−mCD200AR-L. Cells were analyzed by flow cytometry for the (FIG. 14A) CD4^+CTLA4^+, (FIG. 14B) CD8^+CTLA4^+or (FIG. 14C) CD11b^+PD-L1^+ populations. Error bars are representative of n=2 *P<0.005, **P<0.0001.
We propose that soluble CD200 and PD-L1 inhibit T cell activation through multiple checkpoints (FIG. 10). Therefore, the effect of multiple suppressive molecules (CD200 and PD-L1) on T cell inhibition was investigated. […] In addition, following PD-L1 treatment, an upregulation of PD-L1 on CD11b and an upregulation of CTLA4 was observed on T cells. Being CTLA4 and PD-L1 propagate separate inhibitory signals, it was hypothesized that PD-L1 inhibits T cell activation through 1) direct CD200 and PD-L1 on T cells and 2) direct PD-L1 (on APCs)/PD-I (on […]) producing cytokines upregulating CTLA4, which would explain the enhanced responses seen in combination α-PD-1 and α-CTLA4 treatments. However, neither of them inhibit CD200 effect on T cells.
We next looked at the effects of CD200AR-L on T cell inhibition. […] Being CTLA4 and PD-L1 propagate separate inhibitory signals, we hypothesize that PD-L1 inhibits T cell activation through two separate mechanisms, 1) through direct PD-L1 (on APCs)/PD-I (on T cells) interactions and through cytokine production following PD-L1 binding to the PD-1 on CD11b cell, which would explain the enhanced responses seen in combination α-PD-1 and α-CTLA4 treatments.

Murine splenocytes = test: Splenocytes activated with PMA +/- PD-L1 or PD-L1+CD200AR-L, cytokines; assay type: cell-based; conditions: 48 hr
Protocol: FIGS. 11A-11C. […] Murine splenocytes were activated with PMA, +/−PD-L1 or PD-L1+mCD200AR-L. Following 48 hr incubation, supernatants were analyzed for (FIG. 11A) TNFα (FIG. 11B) IL-4 or (FIG. 11C) IL-5. Error bars are representative of n=3; *P<0.005.
The CD200 and PD-1 pathways crosstalk, allowing CD200AR-L to override the suppressive PD-L1. […] To evaluate the effect of CD200AR-L on PD-1/PD-L1, splenocytes were activated with PMA+/−PD-L1 or PD-L1+CD200AR-L, and supernatants were analyzed for TNFα, IL-4 and IL-5 production (FIG. 11A-11C). As observed with the CD200 protein (FIG. 11B), PD-L1 induced an immune suppressed environment as measured by cytokine production; however, PD-L1 reduced the production of TNFα, IL-4 and IL-5 induced by PMA, which was restored by the addition of CD200AR-L. These experiments led to the hypothesis that the CD200 and PD-1 pathways are connected.

Murine CD11b cells = test: PMA-activated murine CD11b cells treated with PD-L1 +/- murine CD200AR-L, cytokines; assay type: cell-based; conditions: PD-L1 with or without murine CD200AR-L, 48 hr
Excerpt: FIGS. 8A-8C. CD200AR-L pulses overpowers the suppressive PD-L1.

murine glioma model = test: Murine glioma model survival; assay type: in vivo
[4] = splenocytes pulsed with CD200 or PD-L1

For “CLFNTFGSGAISGTA (Ac-CLFNTFGSGAISGTA-NH2; listed as Canis lupus) [canine P4A10]”, the survival benefit [1] was “significant survival benefit”.

“IVTWQKKAAVSPENM (Ac-IVTWQKKAAVSPENM-NH2; listed as Homo sapiens) [P1A8]” was tested, and the “PD-1 expression on human CD14 cells” value (human CD14 cells) was “down regulated”, the “secretion of inflammatory cytokines from CD14+ cells” value (Human CD14+ cells) was “maximally stimulated” and the “mRNA expression of TNF-regulated cytokines” value (CD14+ cells [2]; NanoString platform, FIG. 3b) was “most potently and consistently induced”. For the same substance, the “mRNA expression of cytokines released in response to TNF signaling” value (CD14+ cells [2]; RNAseq, CD14+ cells) was “notable increase” and the “levels of co-stimulatory molecules CD80, CD86, and HLA-DR” value (CD14+ cells [3]) was “higher levels”.

For “PD-L1: programmed cell death ligand 1, suppressive protein used to pulse cells”, the “CTLA4 on CD4 cells” value (Splenocytes; [4]) was “upregulated”, the “CTLA4 on CD8 cells” value (Splenocytes; [4]) was “upregulated” and the “PD-L1 on CD11b cells” value (Splenocytes; [4]) was “upregulation; also recorded: upregulated”. The “CTLA4 on T cells” value (Splenocytes; total splenocytes, following PD-L1 treatment) was “upregulation”, the “production of TNFα, IL-4 and IL-5” value (Murine splenocytes) was “reduced” and the “activation of CD11b cells (TNFalpha, IL4, IL5 in supernatant)” value (Murine CD11b cells) was “suppressed the activation”.

In the case of “VTWQKKKAVSPANM (Ac-VTWQKKKAVSPANM-NH2; listed as Mus musculus) [murine P1A12]”, the survival benefit (murine glioma model) is reported as “significant survival benefit”.
